This note sets out measurements from BindingDB's records for doi:10.1021/acs.biochem.5b00431 (University of California Irvine, 2015).

In this assay the target is T1, Nitric oxide synthase oxygenase (Bacillus subtilis (strain 168), UniProt O34453).
T1 sequence (O34453 whole entry): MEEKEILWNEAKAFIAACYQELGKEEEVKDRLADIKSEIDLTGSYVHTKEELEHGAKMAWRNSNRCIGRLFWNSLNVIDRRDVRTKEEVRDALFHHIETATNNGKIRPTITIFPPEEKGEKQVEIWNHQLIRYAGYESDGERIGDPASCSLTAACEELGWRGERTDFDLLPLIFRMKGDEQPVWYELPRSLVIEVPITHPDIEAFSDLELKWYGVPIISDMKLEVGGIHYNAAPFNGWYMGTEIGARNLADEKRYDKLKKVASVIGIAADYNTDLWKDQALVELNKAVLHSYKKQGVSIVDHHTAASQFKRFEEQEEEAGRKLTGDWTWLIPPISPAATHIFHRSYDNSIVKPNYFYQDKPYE
The experiment in a line: Imidazole Spin Shift Assay.
For the compound `Cc1cc(N)nc(CCc2cccc([C@H](N)Cc3cc(C)cc(N)n3)c2)c1`, the Kd turned out to be 25.6 µM. For `Cc1cc(N)nc(CCc2cc(C#N)cc(CCc3cc(C)cc(N)n3)c2)c1` the value was 4.47 µM; for `Cc1cc(N)nc(CCc2ccc(CCCN)c(CCc3cc(C)cc(N)n3)c2)c1`, 8.61 µM. For `CNCCN(C)c1cccc(CCc2cc(C)cc(N)n2)c1` [4-methyl-6-[2-(3-{methyl[2-(methylamino)ethyl]amino}phenyl)ethyl]pyridin-2-amine (13)] the value was 50.5 µM; for `CNCCN(C)c1cncc(CCc2cc(C)cc(N)n2)c1` [4-methyl-6-[2-(5-{methyl[2-(methylamino)ethyl]amino}pyridin-3-yl)ethyl]pyridin-2-amine (14)], 57.6 µM. For `Cc1cc(N)nc(CCc2cncc(CCc3cc(C)nc(N)c3)c2)c1` [6-(2-{5-[2-(2-amino-6-methylpyridin-4-yl)ethyl]pyridin-3-yl}ethyl)-4-methylpyridin-2-amine], the Kd was determined as 5.03 µM. Regarding `CNCCN(c1cc(F)cc(CCc2cc(C)cc(N)n2)c1)C1CC1` [6-[2-(3-{cyclopropyl[2-(methylamino)ethyl]amino}-5-fluorophenyl)ethyl]-4-methylpyridin-2-amine (18)], the dissociation constant Kd turned out to be 62.1 µM. For `NC(=Nc1cccc(OCCOc2cccc(N=C(N)c3cccs3)c2)c1)c1cccs1` [N-(3-{2-[3-(thiophene-2-imidamido)phenoxy]ethoxy}phenyl)thiophene-2-carboximidamide (26)] the value was 127 µM. In the case of `N=C(Nc1cccc(CCc2cccc(NC(=N)c3cccs3)c2)c1)c1cccs1` [N-(3-{2-[3-(thiophene-2-imidamido)phenyl]ethyl}phenyl)thiophene-2-carboximidamide (19)] it was 99 µM; in that of `N=C(Nc1cccc(CNC[C@@H]2CCCN2)c1)c1cccs1` [N-[3-({[(2S)-pyrrolidin-2-ylmethyl]amino}methyl)phenyl]thiophene-2-carboximidamide (20)], 17.8 µM; in that of `N=C(Nc1cccc(COC[C@H]2C[C@H](OCc3cccc(NC(=N)c4cccs4)c3)CN2)c1)c1cccs1` [N-[3-({[(3S,5R)-5-({[3-(thiophene-2-imidamido)phenyl]methoxy}methyl)pyrrolidin-3-yl]oxy}methyl)phenyl]-2H-1λ⁴-thiophene-2-carboximidamide (28)], 7.73 µM. In the case of `N=C(Nc1cccc(COC[C@@H]2C[C@H](OCc3cccc(NC(=N)c4cccs4)c3)CN2)c1)c1cccs1` [N-[3-({[(3S,5S)-5-({[3-(thiophene-2-imidamido)phenyl]methoxy}methyl)pyrrolidin-3-yl]oxy}methyl)phenyl]-2H-1λ⁴-thiophene-2-carboximidamide (25)] it was 11 µM.

What is called Kd is the free concentration of one partner at which half of the binding sites on the other are occupied at equilibrium, for simple one-to-one binding.
